Data reported in patent US10166218B2, “3-(1H-indol-2-yl)-1H-pyrazolo[3,4-C]pyridines and therapeutic uses thereof” (Samumed, LLC, priority 2015, dated 2019).

Experiments:
Type in all cases: cell-based
[1] = test system: IL-6 (THP-1 cells); assay: Inhibition of IL-6 in LPS-stimulated THP-1 human monocyte cells (HTRF); settings: inhibition of IL-6 in LPS-stimulated THP-1 cells, HTRF, 10-point dose-response starting from 10 μM
Protocol: Human monocyte cell line (THP-1 cells; Catalog # TIB-202, ATCC, Manassas, Va.) were cultured in Roswell Park Memorial Institute (RPMI) 1640 Medium (Catalog #21870-100, Buffalo, N.Y.) with 1% L-glutamine, 1% HEPES, 1% Sodium Pyruvate, 2% Sodium Bicarbonate supplemented with 100 units/mL penicillin, 50 μg/mL streptomycin, 2-mercaptoethanol (0.05 mM) [basal medium] and 10% fetal bovine serum (Catalog #16140089, Life Technologies, Carlsbad, Calif.) at 37° C. and 5% CO2.
THP-1 cells were cultured in basal media with 1% FBS for 24 hours before the start of the assay. Each compound was dissolved in DMSO as a 10 mM stock and used to prepare compound source plates. Serial dilution (1:3, 10-point dose-response curves starting from 10 μM) and compound transfer was performed using the ECHO 550 (Labcyte, Sunnyvale, Calif.) into 384-well white low volume assay plates (Greiner Bio-One) with appropriate DMSO backfill for a final DMSO concentration of 0.1%. THP-1 cells were plated at 5000 cells/well in the 384-well plates and incubated at 37° C. for 2 h. 500 ng/mL of LPS was added after 2 hours and cells were incubated for another 22 hours at 37° C. Plates were spun in a centrifuge for 1 minute at […] and a mixture of anti-IL6 XL665, and anti-IL6 Cryptate diluted in reconstitution buffer (Cisbio Inc.) was added to each well. Following incubation for 3 hrs at room temperature, Homogeneous Time-Resolved Fluorescence (HTRF) was measured using the Envision (Perkin Elmer) at 665 nm and […]. The ratio of fluorescence at 665 nm to 620 nm was used as a readout for IL6 quantification. All samples were processed in duplicate. Readings were normalized to DMSO treated cells and normalized activities were utilized for EC50 calculations using the dose-response log (inhibitor) vs. response-variable slope (four parameters) nonlinear regression feature available in GraphPad Prism 5.0 (or Dotmatics). For EC50 of >10 μM, the percent inhibition at 10 μM is provided.

[2] = test system: primary human fibroblasts derived from IPF patients (LL29 cells) treated with TGF-β1; α-smooth muscle actin (αSMA); assay: Inhibition of the fibrotic process: αSMA staining in TGF-β1 treated primary human fibroblasts from IPF patients (LL29 cells); settings: Fibroblast, 96 h, TGF-β1 20 ng/mL, 4 days, % cells positive for αSMA
Description: Representative compounds were screened using primary human fibroblasts (derived from IPF patients) treated with TGF-β1 to determine their ability to inhibit the fibrotic process.
Primary human fibroblasts derived from IPF patients (LL29 cells) [^1Xiaoqiu Liu, et. al., “Fibrotic Lung Fibroblasts Show Blunted Inhibition by cAMP Due to Deficient cAMP Response Element-Binding Protein Phosphorylation”, Journal of Pharmacology and Experimental Therapeutics (2005), 315(2), 678-687; ^2Watts, K. L., et. al., “RhoA signaling modulates cyclin D1 expression in human lung fibroblasts; implications for idiopathic pulmonary fibrosis”, Respiratory Research (2006), 7(1), 88] were obtained from American Type Culture Collection (ATCC) and expanded in F12 medium supplemented with 15% Fetal Bovine Serum and Penicillin/Streptomycin.
Each compound was dissolved in DMSO as a 10 mM stock and used to prepare compound source plates. Serial dilution (1:2, 11-point dose-response curves from 10 μM to 1.87 nM) and compound transfer was performed using the ECHO 550 (Labcyte, Sunnyvale, Calif.) into 384-well clear bottom assay plates (Greiner Bio-One) with appropriate DMSO backfill for a final DMSO concentration of 0.1%. LL29 cells are plated at 1,500 cells/well in 80 μL/well F12 medium supplemented with 1% Fetal Bovine Serum. One hour after addition of the cells, TGF-β1 (Peprotech; 20 ng/mL) was added to the plates to induce fibrosis (ref. 1 and 2 above). Wells treated with TGF-β1 and containing DMSO were used as controls. Cells were incubated at 37° C. and 5% CO2 for 4 days. Following incubation for 4 days, SYTOX green nucleic acid stain (Life Technologies [Thermo Fisher Scientific]) was added to the wells at a final concentration of 1 μM and incubated at room temperature for 30 min. Cells were then fixed using 4% formaldehyde (Electron Microscopy Sciences), washed 3 times with PBS followed by blocking and permeabilization using 3% Bovine Serum Albumin (BSA; Sigma) and 0.3% Triton X-100 (Sigma) in PBS. Cells were then stained with antibody specific to α-smooth muscle actin (αSMA; Abcam) (ref. 1 and 2 above) in 3% Bovine Serum Albumin (BSA; Sigma) and 0.3% Triton X-100 (Sigma) in PBS, and incubated overnight at 4° C. Cells were then washed 3 times with PBS, followed by incubation with Alexa Flor-647 conjugated secondary antibody (Life Technologies [Thermo Fisher Scientific]) and DAPI at room temperature for 1 hour. Cells were then washed 3 times with PBS and plates were sealed for imaging. αSMA staining was imaged by excitation at 630 nm and emission at 665 nm and quantified using the Compartmental Analysis program on the CellInsight CX5 (Thermo Scientific). Dead or apoptotic cells were excluded from analysis based on positive SYTOX green staining. % of total cells positive for αSMA were counted in each well and normalized to the average of 11 wells treated with TGF-β1 on the same plate using Dotmatics' Studies Software. The normalized averages (fold change over untreated) of 3 replicate wells for each compound concentration were used to create dose-responses curves and EC50 values were calculated using non-linear regression curve fit in the Dotmatics' Studies Software. For EC50 of >10 μM, the percent inhibition at 10 μM is provided.

[3] = test system: SW480 colon cancer cells; assay: Cell viability assay (CellTiter-Blue) in SW480 colon cancer cells; settings: Homo sapiens, 96 h, four days, CellTiter-Blue
Protocol: Representative compounds were screened using the following assay procedure to assess the effect on cell viability as described below.
Each compound was dissolved in DMSO as a 10 mM stock and used to prepare compound source plates. Serial dilution (1:3, 8-point dose-response curves from 10 μM to 0.0045 μM) and compound transfer was performed using the ECHO 550 (Labcyte, Sunnyvale, Calif.) into 96-well clear bottom, black-walled plates (Corning-Costar).
Approximately 2×10^3 SW480 colon cancer cells were seeded into each well and allowed to incubate in the presence or absence of compound for four days at 37° C./5% CO2. Eight replicates of DMSO-treated cells served as controls and cells treated with compound were performed in duplicate.
After incubation, 20 μL of CellTiter-Blue (Promega) was added to each well allowed to incubate for approximately 3 hours. This reagent was a buffered solution which contains resazurin, metabolically active cells were able to reduce rezarurin (blue) into resorufin (pink) which was highly fluorescent. This measured fluorescence was used as a readout for cell viability.
After incubation, the plates were read at Ex 560 nm Em 590 nm (Cytation 3, BioTek). Dose-response curves were generated and EC50 concentration values were calculated using non-linear regression curve fit in the GraphPad Prism (San Diego, Calif.) or Dotmatics' Studies Software (Bishops Stortford, UK). For EC50 of >10 μM, the percent inhibition at 10 μM is provided.

[4] = test system: Wnt activity (Sp5-Luc reporter, TCF/LEF binding sites) in SW480 colon carcinoma cells; assay: Screening assay for Wnt activity: Sp5-Luc reporter gene assay in stably transduced SW480 cells; settings: Homo sapiens, overnight incubation
Description: The screening assay for Wnt activity is described as follows. Reporter cell lines can be generated by stably transducing cancer cell lines (e.g., colon cancer) or primary cells (e.g., IEC-6 intestinal cells) with a lentiviral construct that includes a Wnt-responsive promoter driving expression of the firefly luciferase gene.
SW480 colon carcinoma cells were transduced with a lentiviral vector expressing luciferase with a human Sp5 promoter consisting of a sequence of eight TCF/LEF binding sites. SW480 cells stably expressing the Sp5-Luc reporter gene and a hygromycin resistance gene were selected by treatment with 150 μg/mL of hygromycin for 7 days. These stably transduced SW480 cells were expanded in cell culture and used for all further screening activities. Each compound was dissolved in DMSO as a 10 mM stock and used to prepare compound source plates. Serial dilution (1:3, 10-point dose-response curves starting from 10 μM) and compound transfer was performed using the ECHO 550 (Labcyte, Sunnyvale, Calif.) into 384-well white solid bottom assay plates (Greiner Bio-One) with appropriate DMSO backfill for a final DMSO concentration of 0.1%. For Sp5-Luc reporter gene assays, the cells were plated at 4,000 cells/well in 384-well plates with medium containing 1% fetal bovine serum and incubated overnight at 37° C. and 5% CO2. Following incubation, 20 μl of BrightGlo luminescence reagent (Promega) was added to each well of the 384-well assay plates. The plates were placed on an orbital shaker for 2 min and then luminescence was quantified using the Envision (Perkin Elmer) plate reader. Readings were normalized to DMSO only treated cells, and normalized activities were utilized for EC50 calculations using the dose-response log (inhibitor) vs. response-variable slope (four parameters) nonlinear regression feature available in GraphPad Prism 5.0 (or Dotmatics). For EC50 of >10 μM, the percent inhibition at 10 μM is provided.

| EC50 [1] [µM] | EC50 [3] [µM] | EC50 [4] [µM] | SMILES | EC50 [2] [µM] |
| --- | --- | --- | --- | --- |
| 3.61 | 3.8 | 3.41 | CN(C)Cc1cncc(-c2cc3c(-c4cc5c(N6CCN(C)CC6)cccc5[nH]4)n[nH]c3cn2)c1 [Compound 237, N,N-Dimethyl-1-(5-(3-(4-(4-methylpiperazin-1-yl)-1H-indol-2-yl)-1H-pyrazolo[3,4-c]pyridin-5-yl)pyridin-3-yl)methanamine] | 7.32 |
| 3.23 | 2.14 | 1.05 | CCCCC(=O)Nc1cncc(-c2cc3c(-c4cc5c(N6CCN(C)CC6)cccc5[nH]4)n[nH]c3cn2)c1 [Compound 243, N-(5-(3-(4-(4-Methylpiperazin-1-yl)-H-indol-2-yl)-1H-pyrazolo[3,4-c]pyridin-5-yl)pyridin-3-yl)pentanamide] | 1.01 |
| 1.08 | 1.69 | 1.52 | CN1CCN(c2cccc3[nH]c(-c4n[nH]c5cnc(-c6cncnc6)cc45)cc23)CC1 [Compound 251, 3-(4-(4-Methylpiperazin-1-yl)-1H-indol-2-yl)-5-(pyrimidin-5-yl)-1H-pyrazolo[3,4-c]pyridine] | 1.69 |
| 7.12 | 3.42 | 0.911 | CCC(=O)Nc1cncc(-c2cc3c(-c4cc5c(-c6cccs6)cccc5[nH]4)n[nH]c3cn2)c1 [Compound 337, N-(5-(3-(4-(Thiophen-2-yl)-1H-indol-2-yl)-1H-pyrazolo[3,4-c]pyridin-5-yl)pyridin-3-yl)propionamide] | 0.387 |
| 7.75 | 0.696 | 1.13 | CN(C)c1cncc(-c2cc3c(-c4cc5c(-c6cccs6)cccc5[nH]4)n[nH]c3cn2)c1 [Compound 343, N,N-Dimethyl-5-(3-(4-(thiophen-2-yl)-1H-indol-2-yl)-1H-pyrazolo[3,4-c]pyridin-5-yl)pyridin-3-amine] | 0.134 |
| 1.89 | 4.01 | 4.91 | CCCC(=O)Nc1cncc(-c2cc3c(-c4cc5c(-c6cccs6)cccc5[nH]4)n[nH]c3cn2)c1 [Compound 353, N-(5-(3-(4-(Thiophen-2-yl)-1H-indol-2-yl)-1H-pyrazolo[3,4-c]pyridin-5-yl)pyridin-3-yl)butyramide] | 0.056 |

Continued, compound first:

| SMILES | EC50 [1] [µM] | EC50 [3] [µM] | EC50 [4] [µM] | EC50 [2] [µM] |
| --- | --- | --- | --- | --- |
| CC(C)CC(=O)Nc1cncc(-c2cc3c(-c4cc5ccccc5[nH]4)n[nH]c3cn2)c1 [Compound 254, N-(5-(3-(1H-Indol-2-yl)-1H-pyrazolo[3,4-c]pyridin-5-yl)pyridin-3-yl)-3-methylbutanamide] | 0.2 | 1.27 | 0.154 | 0.139 |
| c1cncc(-c2cc3c(-c4cc5ccccc5[nH]4)n[nH]c3cn2)c1 [Compound 256, 3-(1H-Indol-2-yl)-5-(pyridin-3-yl)-1H-pyrazolo[3,4-c]pyridine] | 0.056 | 2.25 | 0.185 | 0.051 |
| c1cc(-c2ccoc2)c2cc(-c3n[nH]c4cnc(-c5ccncc5)cc34)[nH]c2c1 [Compound 326, 3-(4-(Furan-3-yl)-1H-indol-2-yl)-5-(pyridin-4-yl)-1H-pyrazolo[3,4-c]pyridine] | 5.08 | 0.103 | 0.157 | 1.39 |
| c1ccc(CNCc2cncc(-c3cc4c(-c5cc6c(-c7cccs7)cccc6[nH]5)n[nH]c4cn3)c2)cc1 [Compound 360, N-Benzyl-1-(5-(3-(4-(thiophen-2-yl)-1H-indol-2-yl)-1H-pyrazolo[3,4-c]pyridin-5-yl)pyridin-3-yl)methanamine] | 1.43 | 3.47 | 1.78 | 0.373 |
| CN(C)CCNc1cc(F)cc(-c2cccc3[nH]c(-c4n[nH]c5cnc(-c6cncc(NC(=O)Cc7ccccc7)c6)cc45)cc23)c1 [Compound 458, N-(5-(3-(4-(3-((2-(Dimethylamino)ethyl)amino)-5-fluorophenyl)-1H-indol-2-yl)-1H-pyrazolo[3,4-c]pyridin-5-yl)pyridin-3-yl)-2-phenylacetamide] | 3.3 | 4.55 | 3.59 | 2.84 |
